According to patent US7220437B2, “Antiviral and antibacterial activities of extracts from eight plants” (priority 1996, dated 2007):
≈ marks a conversion by molar mass, not a printed value. Where a name gives a salt, the structure may show the parent alone. Marks after values point to notes of the source that are not given here.

Legend:
HIV-1 strain GH3 = assay: Anti-HIV cytopathicity, acute infection of M8166 cells; type: cell-based; details: high multiplicity of infection of 0.11424
HIV-2 strain GH1 = assay: Anti-HIV-2 cytopathicity in Molt 4 clone 8 cells; type: cell-based
Salmonella typhimurium = assay: Bacteria growth, tetrazolium-based colorimetry
Staphylococcus aureus = assay: Bacteria growth, tetrazolium-based colorimetry
Klebsiella pneumoniae = assay: Bacteria growth, tetrazolium-based colorimetry
Edwardsiella species = assay: Bacteria growth, tetrazolium-based colorimetry
PBMCs [1] = tested on: PBMCs
PBMCs [2] = assay: Ex vivo effects on culture induced death of PBMCs of AIDS patients; type: cell-based, human; details: four AIDS patients; noncytotoxic concentrations
[3] = MOI 0.018, treatment after 40 mins of virus adsorption
[4] = Salmonella enterica, TYPHIMURIUM
[5] = Edwardsiella, inoculum 10^1 CID50
[6] = Edwardsiella, inoculum 10^2 CID50
[7] = Edwardsiella, inoculum 10^3 CID50

Cc1cn([C@H]2C[C@H](N=[N+]=[N-])[C@@H](CO)O2)c(=O)[nH]c1=O [AZT, 3′-azido-2′,3′-dideoxythymidine]
cell protection (HIV-1 strain GH3): < 90%
EC50 (HIV-2 strain GH1; MOI 0.018, treatment 2 hrs after virus adsorption): 0.000001 mg/mL (≈ 0.00374 µM)
EC50 (HIV-2 strain GH1; [3]): <0.0000003* mg/ml
EC90 (HIV-2 strain GH1; [3]): 0.3 µg/mL (≈ 1.12 µM)

CC1(C)S[C@@H]2[C@H](NC(=O)Cc3ccccc3)C(=O)N2[C@H]1C(=O)[O-].[Na+] [Penicillin G, sodium penicillin G]
EC50 (Salmonella typhimurium; inoculum 10^1 CID50): 157 to 314 µg/mL
EC90 (Salmonella typhimurium; inoculum 10^1 CID50): 0.157–0.314* mg/ml
EC50 (Staphylococcus aureus; inoculum 10^1 CID50): <0.5 µg/mL
EC90 (Staphylococcus aureus; inoculum 10^1 CID50): <0.5 µg/mL
EC50 (Staphylococcus aureus; inoculum 10^2 CID50): <0.5 µg/mL
EC90 (Staphylococcus aureus; inoculum 10^2 CID50): <0.5 µg/mL
EC50 (Staphylococcus aureus; inoculum 10^3 CID50): 2 µg/mL
EC90 (Staphylococcus aureus; inoculum 10^3 CID50): 2 to 4 µg/mL
EC50 (Klebsiella pneumoniae; inoculum 10^2 CID50): 75 µg/mL
EC90 (Klebsiella pneumoniae; inoculum 10^2 CID50): 130 µg/mL
EC50 (Edwardsiella species; inoculum 10^1 CID50): 196 to 392 µg/mL
EC90 (Edwardsiella species; inoculum 10^1 CID50): 392 µg/mL
EC50 (Edwardsiella species; inoculum 10^2 CID50): 196 to 392 µg/mL
EC90 (Edwardsiella species; inoculum 10^2 CID50): 392 to 784 µg/mL
EC50 (Edwardsiella species; inoculum 10^3 CID50): >0.784* mg/ml
EC90 (Edwardsiella species; inoculum 10^3 CID50): >784 µg/mL

[H]/N=C(/N)N[C@H]1[C@H](O)[C@@H](O)[C@H](O[C@@H]2O[C@@H](C)[C@](O)(C=O)[C@H]2O[C@@H]2O[C@@H](CO)[C@H](O)[C@@H](O)[C@@H]2NC)[C@@H](N/C(N)=N\[H])[C@@H]1O [Streptomycin sulfate, streptomycin sulfate]
EC50 (Salmonella typhimurium; [4]): 16 to 32 µg/mL
EC90 (Salmonella typhimurium; [4]): 16 to 32 µg/mL
EC50 (Salmonella typhimurium; inoculum 10^2 CID50): 16 to 32 µg/mL
EC90 (Salmonella typhimurium; inoculum 10^2 CID50): 16 to 32 µg/mL
EC50 (Salmonella typhimurium; inoculum 10^3 CID50): 16 to 32 µg/mL
EC90 (Salmonella typhimurium; inoculum 10^3 CID50): 16 to 32 µg/mL
EC50 (Staphylococcus aureus; Staphylococcus aureus): < 0.4 µg/mL
EC90 (Staphylococcus aureus; Staphylococcus aureus): < 0.4 µg/mL
EC50 (Staphylococcus aureus; inoculum 10^2 CID50): <0.4 µg/mL
EC90 (Staphylococcus aureus; inoculum 10^2 CID50): <0.4 µg/mL
EC50 (Staphylococcus aureus; inoculum 10^3 CID50): <0.4 µg/mL
EC90 (Staphylococcus aureus; inoculum 10^3 CID50): <0.4 µg/mL
EC50 (Klebsiella pneumoniae; Klebsiella pneumoniae): < 1 µg/mL
EC90 (Klebsiella pneumoniae; Klebsiella pneumoniae): < 1 µg/mL
EC50 (Edwardsiella species; [5]): 63 µg/mL
EC90 (Edwardsiella species; [5]): 63 to 125 µg/mL
EC50 (Edwardsiella species; [6]): 63 µg/mL
EC90 (Edwardsiella species; [6]): 500 µg/mL
EC50 (Edwardsiella species; [7]): > 500 µg/mL
EC90 (Edwardsiella species; [7]): > 500 µg/mL

Nc1ccn([C@H]2CC[C@@H](CO)O2)c(=O)n1 [ddCyd, 2′,3′-dideoxycytidine]
toxicity towards PBMCs from the healthy person (PBMCs [1]): no toxicity
accelerated culture induced death of PBMCs from AIDS patients (PBMCs [2]): effective in these patients except one AIDS patient

OC[C@@H]1CC[C@H](n2cnc3c(O)ncnc32)O1 [ddino, 2′,3′-dideoxyinosine]
accelerated culture induced death of PBMCs from AIDS patients (PBMCs [2]): effective in these patients except one AIDS patient
